Laboratory results as given in patent US6914045B2, “Glycopeptide antibiotics” (Wyeth Holdings Corporation, priority 2001, dated 2005).
≈ marks a conversion by molar mass, not a printed value. Each block holds one compound with its values, some of them ahead of it.

What was measured:
Test in all cases: in vitro antibacterial evaluation, MIC by broth dilution
Assay type in all cases: cell-based
[1] = system: Enterococcus sp.; conditions: broth dilution, 18 hours at 35° C.
Experimental: (§1) Methods for in vitro Antibacterial Evaluation (Table 1)
(§2) The minimum inhibitory concentration (MIC), the lowest concentration of the antibiotic which inhibits growth of the test organism, is determined by the broth dilution method using Muller-Hinton II […] (Baltimore Biological Laboratories) following the recommendations of the National Committee for Clinical Laboratory Standards [Methods for dilution antimicrobial susceptibility tests for bacteria that grow aerobically, approved standard M7-A2, National Committee for Clinical Laboratory Standards, Villanova, Pa.].
(§3) An inoculum level of 5×10^5 CFU/mL, and a range of antibiotic concentrations (64-0.06 μg/mL) is used. […] The test organisms include a spectrum of Gram-positive bacteria comprised of Staphylococcus sp., Streptococcus sp. and Enterococcus sp. These organisms include recent clinical isolates that are resistant to methicillin, penicillin and/or vancomycin.

[2] = system: Streptococcus sp.; conditions: broth dilution, 18 hours at 35° C.
Experimental: as §1, §2, §3

[3] = system: Staphylococcus sp.; conditions: broth dilution, 18 hours at 35° C.; for MIC Staphylococcus aureus (ATCC 29213): strain ATCC 29213; for MIC Staphylococcus aureus (GC 1131): strain GC 1131; for MIC Staphylococcus aureus (GC 3051): strain GC 3051; for MIC Staphylococcus aureus (GC 3053): strain GC 3053; for MIC Staphylococcus aureus (GC 4541): strain GC 4541; for MIC Staphylococcus aureus (GC 4542): strain GC 4542; for MIC Staphylococcus aureus-SMITH (GC 4543): strain GC 4543; for MIC Staphylococcus aureus (GC 4544): strain GC 4544; for MIC Staphylococcus aureus (GC 4545): strain GC 4545; for MIC Staphylococcus haemolyticus (GC 4546): strain GC 4546; for MIC Coagulase Negative Staphylococcus (GC 4547): strain GC 4547; for MIC Coagulase Negative Staphylococcus (GC 4548): strain GC 4548; for MIC Coagulase Negative Staphylococcus (GC 4549): strain GC 4549; for MIC Coagulase Negative Staphylococcus (GC 4551): strain GC 4551
Experimental: as §1, §2, §3

[4] = system: Escherichia coli; conditions: 18 hours at 35° C.
Summary of the method: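 Broth dilution in Muller-Hinton II medium per NCCLS standard M7-A2, with an inoculum of 5×10^5 CFU/mL and antibiotic tested over 64-0.06 μg/mL. MIC was taken as the lowest concentration inhibiting visible growth.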

MIC Enterococcus faecalis (ATCC 29212) ([1]; strain ATCC 29212): 32 µg/mL (≈ 28.6 µM)
MIC Enterococcus faecalis (GC 2242) ([1]; strain GC 2242): 64 µg/mL (≈ 57.3 µM)
MIC Enterococcus faecium (GC 2243) ([1]; strain GC 2243): 32 µg/mL (≈ 28.6 µM)
MIC Enterococcus faecalis (GC 2691) ([1]; strain GC 2691): 32 µg/mL (≈ 28.6 µM)
MIC Enterococcus faecalis (GC 3059) ([1]; strain GC 3059): 64 µg/mL (≈ 57.3 µM)
MIC Enterococcus faecalis (GC 4552) ([1]; strain GC 4552): 64 µg/mL (≈ 57.3 µM)
MIC Enterococcus faecalis (GC 4553) ([1]; strain GC 4553): 32 µg/mL (≈ 28.6 µM)
MIC Enterococcus faecalis (GC 4554) ([1]; strain GC 4554): 64 µg/mL (≈ 57.3 µM)
MIC Enterococcus faecium (GC 4556) ([1]; strain GC 4556): 64 µg/mL (≈ 57.3 µM)
MIC Enterococcus faecium (GC 4557) ([1]; strain GC 4557): 8 µg/mL (≈ 7.16 µM)
MIC Enterococcus avium (GC 4558) ([1]; strain GC 4558): 32 µg/mL (≈ 28.6 µM)
MIC Enterococcus faecalis (GC 6189) ([1]; strain GC 6189): 32 µg/mL (≈ 28.6 µM)
MIC Streptococcus pneumoniae (ATCC 6301) ([2]; strain ATCC 6301): 32 µg/mL (≈ 28.6 µM)
MIC Streptococcus pneumoniae (GC 1894) ([2]; strain GC 1894): 16 µg/mL (≈ 14.3 µM)
MIC Streptococcus pyogenes (GC 4563) ([2]; strain GC 4563): 8 µg/mL (≈ 7.16 µM)
MIC Streptococcus agalactiae (GC 4564) ([2]; strain GC 4564): 16 µg/mL (≈ 14.3 µM)
MIC Streptococcus pneumoniae (GC 4565) ([2]; strain GC 4565): 32 µg/mL (≈ 28.6 µM)
MIC Staphylococcus aureus (ATCC 29213) [3]: 32 µg/mL (≈ 28.6 µM)
MIC Staphylococcus aureus (GC 1131) [3]: 16 µg/mL (≈ 14.3 µM)
MIC Staphylococcus aureus (GC 3051) [3]: 16 µg/mL (≈ 14.3 µM)
MIC Staphylococcus aureus (GC 3053) [3]: 16 µg/mL (≈ 14.3 µM)
MIC Staphylococcus aureus (GC 4541) [3]: 32 µg/mL (≈ 28.6 µM)
MIC Staphylococcus aureus (GC 4542) [3]: 16 µg/mL (≈ 14.3 µM)
MIC Staphylococcus aureus-SMITH (GC 4543) [3]: 16 µg/mL (≈ 14.3 µM)
MIC Staphylococcus aureus (GC 4544) [3]: 16 µg/mL (≈ 14.3 µM)
MIC Staphylococcus aureus (GC 4545) [3]: 32 µg/mL (≈ 28.6 µM)
MIC Coagulase Negative Staphylococcus (GC 4547) [3]: 8 µg/mL (≈ 7.16 µM)
MIC Coagulase Negative Staphylococcus (GC 4548) [3]: 16 µg/mL (≈ 14.3 µM)
MIC Coagulase Negative Staphylococcus (GC 4549) [3]: 4 µg/mL (≈ 3.58 µM)
MIC Coagulase Negative Staphylococcus (GC 4551) [3]: 16 µg/mL (≈ 14.3 µM)
MIC Coagulase Negative Staphylococcus (GC 6257) ([3]; strain GC 6257): 4 µg/mL (≈ 3.58 µM)
MIC Escherichia coli (ATCC 25922) ([4]; strain ATCC 25922, broth dilution): 64 µg/mL (≈ 57.3 µM)
MIC Escherichia coli (GC 4559) ([4]; strain GC 4559, broth dilution): 64 µg/mL (≈ 57.3 µM)
MIC Escherichia coli (GC 4560) ([4]; strain GC 4560, broth dilution): 16 µg/mL (≈ 14.3 µM)
Structure (SMILES): CC(c1ccccc1)C1NC(=O)CNC(=O)C(CO)NC(=O)C(C(O)C2CNC(=N)N2C2OC(CO)C(O)C(O)C2O)NC(=O)C(C(O)C2CNC(=N)N2)NC(=O)C(Cc2ccc3oc(-c4cccc([N+](=O)[O-])c4)nc3c2)NC1=O (stereo not drawn) [Example 26, Cyclo[3-[2-(3-nitrophenyl)-1,3-benzoxazol-5-yl)alanyl-3-(2-iminoimidazolidin-4-yl)seryl-3-(3-hexopyranosyl-2-iminoimidazolidin-4-yl)serylserylglycyl-β-methylphenylalanyl]]
MIC Staphylococcus haemolyticus (GC 4546) [3]: 4 µg/mL (≈ 3.58 µM)

MIC Enterococcus avium (GC 4558) [1]: 64 µg/mL (≈ 44.9 µM)
MIC Enterococcus faecalis (ATCC 29212) [1]: >64 µg/mL
MIC Enterococcus faecalis (GC 2242) [1]: >64 µg/mL
MIC Enterococcus faecalis (GC 2691) [1]: >64 µg/mL
MIC Enterococcus faecalis (GC 3059) [1]: >64 µg/mL
MIC Enterococcus faecalis (GC 4552) [1]: >64 µg/mL
MIC Enterococcus faecalis (GC 4553) [1]: 64 µg/mL (≈ 44.9 µM)
MIC Enterococcus faecalis (GC 4554) [1]: >64 µg/mL
MIC Enterococcus faecalis (GC 6189) [1]: >64 µg/mL
MIC Enterococcus faecium (GC 2243) [1]: >64 µg/mL
MIC Enterococcus faecium (GC 4556) [1]: >64 µg/mL
MIC Enterococcus faecium (GC 4557) [1]: 64 µg/mL (≈ 44.9 µM)
MIC Enterococcus faecalis (ATCC 29212) ([1]; inoculum 5×10^5 CFU/mL, strain ATCC 29212): >64 µg/mL
MIC Enterococcus faecalis (GC 2242) ([1]; inoculum 5×10^5 CFU/mL, strain GC 2242): >64 µg/mL
MIC Enterococcus faecium (GC 2243) ([1]; inoculum 5×10^5 CFU/mL, strain GC 2243): >64 µg/mL
MIC Enterococcus faecalis (GC 2691) ([1]; inoculum 5×10^5 CFU/mL, strain GC 2691): >64 µg/mL
MIC Enterococcus faecalis (GC 3059) ([1]; inoculum 5×10^5 CFU/mL, strain GC 3059): >64 µg/mL
MIC Enterococcus faecalis (GC 4552) ([1]; inoculum 5×10^5 CFU/mL, strain GC 4552): >64 µg/mL
MIC Enterococcus faecalis (GC 4553) ([1]; inoculum 5×10^5 CFU/mL, strain GC 4553): 64 µg/mL (≈ 44.9 µM)
MIC Enterococcus faecalis (GC 4554) ([1]; inoculum 5×10^5 CFU/mL, strain GC 4554): >64 µg/mL
MIC Enterococcus faecium (GC 4556) ([1]; inoculum 5×10^5 CFU/mL, strain GC 4556): >64 µg/mL
MIC Enterococcus faecium (GC 4557) ([1]; inoculum 5×10^5 CFU/mL, strain GC 4557): 64 µg/mL (≈ 44.9 µM)
MIC Enterococcus avium (GC 4558) ([1]; inoculum 5×10^5 CFU/mL, strain GC 4558): 64 µg/mL (≈ 44.9 µM)
MIC Enterococcus faecalis (GC 6189) ([1]; inoculum 5×10^5 CFU/mL, strain GC 6189): >64 µg/mL
MIC Streptococcus agalactiae (GC 4564) [2]: >64 µg/mL
MIC Streptococcus pneumoniae (ATCC 6301) [2]: 64 µg/mL (≈ 44.9 µM)
MIC Streptococcus pneumoniae (GC 1894) [2]: 32 µg/mL (≈ 22.4 µM)
MIC Streptococcus pneumoniae (GC 4565) [2]: >64 µg/mL
MIC Streptococcus pyogenes (GC 4563) [2]: 64 µg/mL (≈ 44.9 µM)
MIC Streptococcus pneumoniae (ATCC 6301) ([2]; inoculum 5×10^5 CFU/mL, strain ATCC 6301): 64 µg/mL (≈ 44.9 µM)
MIC Streptococcus pneumoniae (GC 1894) ([2]; inoculum 5×10^5 CFU/mL, strain GC 1894): 32 µg/mL (≈ 22.4 µM)
MIC Streptococcus pyogenes (GC 4563) ([2]; inoculum 5×10^5 CFU/mL, strain GC 4563): 64 µg/mL (≈ 44.9 µM)
MIC Streptococcus agalactiae (GC 4564) ([2]; inoculum 5×10^5 CFU/mL, strain GC 4564): >64 µg/mL
MIC Streptococcus pneumoniae (GC 4565) ([2]; inoculum 5×10^5 CFU/mL, strain GC 4565): >64 µg/mL
MIC Staphylococcus aureus (ATCC 29213) [3]: >64 µg/mL
MIC Staphylococcus aureus (GC 1131) [3]: >64 µg/mL
MIC Staphylococcus aureus (GC 3051) [3]: 64 µg/mL (≈ 44.9 µM)
MIC Staphylococcus aureus (GC 3053) [3]: >64 µg/mL
MIC Staphylococcus aureus (GC 4541) [3]: 64 µg/mL (≈ 44.9 µM)
MIC Staphylococcus aureus (GC 4542) [3]: 64 µg/mL (≈ 44.9 µM)
MIC Staphylococcus aureus-SMITH (GC 4543) [3]: 64 µg/mL (≈ 44.9 µM)
MIC Staphylococcus aureus (GC 4544) [3]: 64 µg/mL (≈ 44.9 µM)
MIC Staphylococcus aureus (GC 4545) [3]: 64 µg/mL (≈ 44.9 µM)
MIC Coagulase Negative Staphylococcus (GC 4547) [3]: 64 µg/mL (≈ 44.9 µM)
MIC Coagulase Negative Staphylococcus (GC 4548) [3]: 64 µg/mL (≈ 44.9 µM)
MIC Coagulase Negative Staphylococcus (GC 4549) [3]: 64 µg/mL (≈ 44.9 µM)
MIC Coagulase Negative Staphylococcus (GC 4551) [3]: 64 µg/mL (≈ 44.9 µM)
MIC Escherichia coli (ATCC 25922) [4]: >64 µg/mL
MIC Escherichia coli (GC 4559) [4]: >64 µg/mL
MIC Escherichia coli (GC 4560) [4]: 32 µg/mL (≈ 22.4 µM)
Structure (SMILES): N=C1NCC(C(O)C2NC(=O)C(CC3CCC(OC4OC(CO)C(OC5OC6COC7(OC6C(O)C5O)C5CC6CC(C5)CC7C6)C(O)C4O)CC3)NC(=O)C(CC3CCCCC3)NC(=O)CNC(=O)C(CO)NC(=O)C(C(O)C3CNC(=N)N3C3OC(CO)C(O)C(O)C3O)NC2=O)N1 (single isomer, unassigned) [Example 223]
MIC Staphylococcus haemolyticus (GC 4546) [3]: 64 µg/mL (≈ 44.9 µM)
